From patent US8183238B2, “Bicyclic and tricyclic compounds as KAT II inhibitors” (priority 2009, dated 2012) come the findings set out here.

Structures can show the parent of a compound that is named as a salt. Where two headings read alike, the source gives them in different places.

The experiment concerns the target human KAT II (hKAT II) enzyme (Homo sapiens, UniProt Q8N5Z0). Nature of the experiment: KAT II Inhibition Spectra Assay. To be noted: hKAT II, decrease in OD370, 37° C., 15-20 h, read-out: KATII IC50. The format is biochemical. Here is the method: Formation of kynurenic acid (KYNA) is indirectly assessed by a decrease in light absorbance at 370 nm (OD370) as the L-kynurenine (KYN) substrate is converted by the human KAT II (hKAT II) enzyme into KYNA. An inhibitor would therefore inhibit the decrease in OD370.
The protocol was performed by placing the following reagents into a Costar 384 well black plate (30 μL total assay volume/well): • 10 μL of 3× concentrated compound; • 10 μL of 3× concentrated substrate mix (BGG (Sigma G-5009); 3 mM L-Kynurenine in 150 mM Tris Acetate (Sigma K3750); 3 mM α-ketoglutaric acid in 150 mM Tris Acetate (Sigma K2010); and 210 μM pyridoxal 5-phosphate (PLP) in 150 mM Tris Acetate (Sigma 9255)); and • 10 μL of 3× concentrated enzyme (15 nM enzyme in 150 mM Tris Acetate with 0.3% bovine serum).
Plates were sealed and incubated at 37° C. for 15-20 h before reading OD370 on a SpectraMax Plus plate reader. IC50s were generated by comparing the efficacy of compounds across a concentration range to inhibit a reduction in the OD370 value relative to assay wells with DMSO added in place of concentrated compound.

Chain of human KAT II (hKAT II) enzyme (Q8N5Z0 30-425): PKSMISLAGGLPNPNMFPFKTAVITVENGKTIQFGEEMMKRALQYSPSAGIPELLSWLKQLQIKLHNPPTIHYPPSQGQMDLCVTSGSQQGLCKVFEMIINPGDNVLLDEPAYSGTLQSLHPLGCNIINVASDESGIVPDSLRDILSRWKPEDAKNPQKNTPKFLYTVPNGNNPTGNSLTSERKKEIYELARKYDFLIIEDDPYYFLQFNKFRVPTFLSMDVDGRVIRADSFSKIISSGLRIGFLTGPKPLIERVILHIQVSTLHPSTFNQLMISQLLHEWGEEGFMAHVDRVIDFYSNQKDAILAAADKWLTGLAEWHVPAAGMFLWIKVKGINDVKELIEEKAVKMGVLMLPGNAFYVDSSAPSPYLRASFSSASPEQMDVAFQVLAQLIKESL

As for `N[C@H]1Cc2cc(Oc3cccc(C(F)(F)F)c3)cnc2N(O)C1=O` [Example 79], the IC50 – broadly, the concentration needed to halve the response being measured – (Table 6) turned out to be 0.0295 µM. Still for that read-out and setting: the value for `N[C@H]1Cc2cc(Oc3cc(F)cc(Cl)c3)ccc2N(O)C1=O` [Example 168, (3S)-3-amino-6-(3-chloro-5-fluorophenoxy)-1-hydroxy-3,4-dihydroquinolin-2(1H)-one, trifluoroacetate salt] was 0.0543 µM.

Consider `NC1Cc2cc(Oc3ccc(O)nc3)ccc2N(O)C1=O` (stereo not drawn) [Example 84], for which the IC50 (Table 6) amounted to 0.0411 µM. Same read-out and setting: the same measure for `N[C@H]1Cc2cccc(Oc3ccccc3)c2N(O)C1=O` [Example 77]: 0.0801 µM. With `Cc1cccc(-c2ccc3c(c2)C[C@H](N)C(=O)N3O)c1` [Example 146, (3S)-3-amino-1-hydroxy-6-(3-methylphenyl)-3,4-dihydroquinolin-2(1H)-one, trifluoroacetate salt], the IC50 (Table 6) turned out to be 0.0786 µM. With `Cc1ccc(-c2ccc3c(c2)N(O)C(=O)C(N)C3)cc1` (stereo not drawn) [Example 39, 3-amino-1-hydroxy-7-(4-methylphenyl)-3,4-dihydroquinolin-2(1H)-one, trifluoroacetate salt], the IC50 (Table 5) stood at 0.136 µM. The same measure, in the same setting: the same measure for `COc1ccc(-c2ccc3c(c2)N(O)C(=O)C(N)C3)cc1C` (stereo not drawn) [Example 64, 3-amino-1-hydroxy-7-(4-methoxy-3-methylphenyl)-3,4-dihydroquinolin-2(1H)-one, trifluoroacetate salt]: 0.141 µM.

With `Cc1ccc2c(c1)N(O)C(=O)C(N)C2` (stereo not drawn) [Example 17], the IC50 (Table 5) was 0.0951 µM. Take `NC1Cc2cc(Oc3cccc(F)c3)ccc2N(O)C1=O` (stereo not drawn) [Example 106]: for the setting “Table 6”, the IC50 stood at 0.0492 µM. `N[C@H]1Cc2cc(-c3cccc(F)c3)ccc2N(O)C1=O` [Example 139, (3S)-3-amino-6-(3-fluorophenyl)-1-hydroxy-3,4-dihydroquinolin-2(1H)-one, trifluoroacetate salt]: the IC50 (Table 6) came to 0.0661 µM. Still for that read-out and setting: the value for `N[C@H]1Cc2cc(-c3c(F)cccc3F)ccc2N(O)C1=O` [Example 148, (3S)-3-amino-6-(2,6-difluorophenyl)-1-hydroxy-3,4-dihydroquinolin-2(1H)-one, trifluoroacetate salt] was 0.0761 µM. For the compound `Cc1cccc(-c2ccc3c(c2)N(O)C(=O)C(N)C3)c1` (stereo not drawn) [Example 63, 3-amino-1-hydroxy-7-(3-methylphenyl)-3,4-dihydroquinolin-2(1H)-one, trifluoroacetate salt], the IC50 (Table 5) stood at 0.113 µM. Regarding `N[C@H]1Cc2cc(-c3ccc(Cl)cc3)ccc2N(O)C1=O` [Example 140, (3S)-3-amino-6-(4-chlorophenyl)-1-hydroxy-3,4-dihydroquinolin-2(1H)-one, trifluoroacetate salt], the IC50 (Table 6) came out at 0.252 µM. Turning to `Cc1ccc(F)cc1Oc1ccc2c(c1)C[C@H](N)C(=O)N2O` [Example 165, (3S)-3-amino-6-(5-fluoro-2-methylphenoxy)-1-hydroxy-3,4-dihydroquinolin-2(1H)-one, trifluoroacetate salt], the IC50 (Table 6) is 0.0966 µM. On the same count and under the same terms, the value for `COc1cccc(-c2ccc3c(c2)C[C@H](N)C(=O)N3O)c1` [Example 155, (3S)-3-amino-1-hydroxy-6-(3-methoxyphenyl)-3,4-dihydroquinolin-2(1H)-one, trifluoroacetate salt] was 0.136 µM; that for `N#Cc1cccc(Oc2cnc3c(c2)C[C@H](N)C(=O)N3O)c1` [Example 129] was 0.0491 µM.

Turning to `N#Cc1cccc(Oc2ccc3c(c2)C[C@H](N)C(=O)N3O)c1` [Example 70, 3-{[(3S)-3-amino-1-hydroxy-2-oxo-1,2,3,4-tetrahydroquinolin-6-yl]oxy}benzonitrile, hydrochloride salt], the IC50 (Table 6) was 0.0246 µM. With `COc1cccc(Oc2cnc3c(c2)C[C@H](N)C(=O)N3O)c1` [Example 80], the IC50 (Table 6) turned out to be 0.0311 µM.

For `CC(C)Oc1ccc2c(c1)N(O)C(=O)[C@@H](N)C2` [Example 25], for the setting “Table 5”, the IC50 was 0.0484 µM. In the case of `N[C@H]1Cc2cc(Cl)cc(Cl)c2N(O)C1=O` [Example 113], the IC50 (Table 6) came out at 0.301 µM.

Consider `NC1Cc2ccc(-c3ccc(C(F)(F)F)cc3)cc2N(O)C1=O` (stereo not drawn) [Example 53, 3-amino-1-hydroxy-7-[4-(trifluoromethyl)phenyl]-3,4-dihydroquinolin-2(1H)-one, trifluoroacetate salt], for which the IC50 (Table 5) came to 0.206 µM. `Cc1nc2c(cc1Cc1ccccc1)C[C@H](N)C(=O)N2O` [Example 128]: the IC50 (Table 6) worked out at 0.0255 µM.

On to `N[C@H]1Cc2ccc3c(c2N(O)C1=O)CCO3` [Example 81], for which the IC50 (Table 6) was determined as 0.212 µM. For `N[C@H]1Cc2cc(-c3ccccc3OC(F)(F)F)ccc2N(O)C1=O` [Example 132, (3S)-3-amino-1-hydroxy-6-[2-(trifluoromethoxy)phenyl]-3,4-dihydroquinolin-2(1H)-one, trifluoroacetate salt], the IC50 (Table 6) worked out at 0.121 µM. Same read-out and setting: the value for `COc1ccc(Oc2ccc3c(c2)CC(N)C(=O)N3O)cn1` (stereo not drawn) [Example 171, 3-amino-1-hydroxy-6-[(6-methoxypyridin-3-yl)oxy]-3,4-dihydroquinolin-2(1H)-one, ammonium salt] was 0.0428 µM.

As for `N[C@H]1Cc2cccc(F)c2N(O)C1=O` [Example 36], where the note is “Table 5”, the 50% inhibitory concentration (IC50) worked out at 0.0793 µM. Take `Cc1cccc2c1N(O)C(=O)C(N)C2` (stereo not drawn) [Example 19]: the IC50 (Table 5) was 3.04 µM. Consider `NC1Cc2ccc(-c3ccccc3)cc2N(O)C1=O` (stereo not drawn) [Example 42, 3-amino-1-hydroxy-7-phenyl-3,4-dihydroquinolin-2(1H)-one, trifluoroacetate salt], for which, under “Table 5”, the concentration for half-maximal inhibition (IC50) is 0.101 µM. For the compound `N[C@H]1Cc2cc(-c3ccc(F)cc3)ccc2N(O)C1=O` [Example 142, (3S)-3-amino-6-(4-fluorophenyl)-1-hydroxy-3,4-dihydroquinolin-2(1H)-one, trifluoroacetate salt], the IC50 (Table 6) turned out to be 0.102 µM. On the same count and under the same terms, the same measure for `COc1cc2c(cc1Cc1ccccc1)C[C@H](N)C(=O)N2O` [Example 75, (3S)-3-amino-6-benzyl-1-hydroxy-7-methoxy-3,4-dihydroquinolin-2(1H)-one, hydrochloride salt]: 0.0352 µM; for `CCOc1ccccc1-c1ccc2c(c1)C[C@H](N)C(=O)N2O` [Example 141, (3S)-3-amino-6-(2-ethoxyphenyl)-1-hydroxy-3,4-dihydroquinolin-2(1H)-one, trifluoroacetate salt]: 0.283 µM.

Consider `N[C@H]1Cc2cc(Oc3ccc(F)c(C(F)(F)F)c3)ccc2N(O)C1=O` [Example 159, (3S)-3-amino-6-[4-fluoro-3-(trifluoromethyl)phenoxy]-1-hydroxy-3,4-dihydroquinolin-2(1H)-one, trifluoroacetate salt], for which, where the note is “Table 6”, the concentration for half-maximal inhibition (IC50) is 0.109 µM. In the case of `NC1Cc2cc(Oc3ccc(Cl)cc3)ccc2N(O)C1=O` (stereo not drawn) [Example 105], the IC50 (Table 6) amounted to 0.0681 µM. Turning to `N[C@H]1Cc2cc(Oc3ccccc3)cnc2N(O)C1=O` [Example 66, (3S)-3-amino-1-hydroxy-6-phenoxy-3,4-dihydro-1,8-naphthyridin-2(1H)-one], the IC50 (Table 6) was 0.0231 µM.

With `C[C@H]1c2ccccc2N(O)C(=O)[C@H]1N` [Example 7, (3S,4S)-3-amino-1-hydroxy-4-methyl-3,4-dihydroquinolin-2(1H)-one, hydrochloride salt], under “Table 5”, the IC50 came out at 3.28 µM. Take `N[C@H]1Cc2cccc(-c3cccnc3C(F)(F)F)c2N(O)C1=O` [Example 90]: the IC50 (Table 6) came out at 0.355 µM. On the same count and under the same terms, the same measure for `Cc1ccc(Oc2ccc3c(c2)CC(N)C(=O)N3O)cn1` (stereo not drawn) [Example 88]: 0.0209 µM; for `N[C@H]1Cc2cc(S(=O)(=O)c3ccccc3)ccc2N(O)C1=O` [Example 67, (3S)-3-amino-1-hydroxy-6-(phenylsulfonyl)-3,4-dihydroquinolin-2(1H)-one, hydrochloride salt]: 0.0421 µM; for `NC1Cc2cc(Oc3ccccc3Cl)ccc2N(O)C1=O` (stereo not drawn) [Example 69, 3-amino-6-(2-chlorophenoxy)-1-hydroxy-3,4-dihydroquinolin-2(1H)-one, hydrochloride salt]: 0.0433 µM.

As for `N[C@H]1Cc2cc(-c3cccc(Cl)c3)ccc2N(O)C1=O` [Example 143, (3S)-3-amino-6-(3-chlorophenyl)-1-hydroxy-3,4-dihydroquinolin-2(1H)-one, trifluoroacetate salt], the IC50 (Table 6) was 0.096 µM. For the compound `N[C@H]1Cc2cc(Br)cc(C(F)(F)F)c2N(O)C1=O` [Example 24], the IC50 (Table 5) came to 0.05 µM. On the same count and under the same terms, the same measure for `NC1Cc2ccc(-c3cccc(C(F)(F)F)c3)cc2N(O)C1=O` (stereo not drawn) [Example 46, 3-amino-1-hydroxy-7-[3-(trifluoromethyl)phenyl]-3,4-dihydroquinolin-2(1H)-one, trifluoroacetate salt]: 0.128 µM. `N#Cc1ccc(Oc2ccc3c(c2)C[C@H](N)C(=O)N3O)cc1C(F)(F)F` [Example 164, 4-{[(3S)-3-amino-1-hydroxy-2-oxo-1,2,3,4-tetrahydroquinolin-6-yl]oxy}-2-(trifluoromethyl)benzonitrile, trifluoroacetate salt]: where the note is “Table 6”, the IC50 is 0.0422 µM. Take `NC1Cc2ccc(Cl)cc2N(O)C1=O` (stereo not drawn) [Example 15]: for the setting “Table 5”, the IC50 was found to be 0.0111 µM. For the compound `NC1Cc2ccc(-c3cc(Cl)cc(Cl)c3)cc2N(O)C1=O` (stereo not drawn) [Example 58, 3-amino-7-(3,5-dichlorophenyl)-1-hydroxy-3,4-dihydroquinolin-2(1H)-one, trifluoroacetate salt], under “Table 5”, the IC50 is 0.174 µM.
